The supplement of paper PMC4862054
Each block holds one compound with its values, some of them ahead of it.

Experiments:
HCC1143 [1] = details: 72 h
How it was run: (§1)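 Breast cancer cell lines in 20 µl suspension were seeded onto 384-well plates pre-loaded with compound dissolved in 5 µl medium, then incubated 72 h. For viability, 2.5 µl CellTiter-Blue was added for 2 h at 37 °C and fluorescence read at 560/590 nm. Each plate was normalised to vehicle and a positive kill control and checked by Z'-factor. EC50 comes from the fitted percent-inhibition dose-response curve, censored at the highest concentration; rows with zero drug sensitivity score were dropped.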

MDA-MB-231 [2] = details: 72 h
How it was run: as §1

BT-549 [3] = details: 72 h
How it was run: (§2)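 Seeding of breast cancer cell lines (20 µl suspension) was done into 384-well plates pre-loaded with compound at 5 concentrations, 10-fold apart, covering a compound-specific 10,000-fold range. The plates were incubated for 72 h, read for CellTox Green fluorescence (485/520 nm), and then read for CellTiter-Glo luminescence after 10 min at room temperature. Every plate was normalised to 0.1 % DMSO and a positive kill control. Curve fitting gave the EC50, censored at the top concentration.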

DU-4475 [4] = details: 72 h
How it was run: as §1

MFM-223 [5] = assay: normalised viability (% of control), CellTiter-Blue; higher = more viable cells (about 100 = DMSO control); details: incubation time: 72 h
How it was run: (§3)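 Normalised viability is given for a single listed concentration of the series. In 384-well plates, breast cancer cell lines were incubated 72 h with compound, then read with CellTiter-Blue (2 h, 37 °C) at 560/590 nm. Per-plate scaling set vehicle to 100 and a positive kill control to 0, with Z'-factor quality control.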

SK-BR-3 [6] = assay: as above; details: incubation time: 72 h
How it was run: as §3

MDA-MB-436 [7] = assay: as above; details: incubation time: 72 h
How it was run: as §3

Hs578T [8] = assay: as above; details: incubation time: 72 h
How it was run: as §3

BT-549 [9] = assay: as above; details: incubation time: 72 h
How it was run: as §3

MDA-MB-468 [10] = details: 72 h
Experimental: (§4)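 Drug sensitivity and resistance testing (DSRT) of breast cancer cell lines in 384-well plates, 5 concentrations in 10-fold dilutions over a compound-specific 10,000-fold range. After 72 h, cytotoxicity was read by CellTox Green fluorescence and viability by CellTiter-Glo luminescence (multiplexed), normalised to DMSO and benzethonium chloride controls. EC50 is the inflection point of the fitted dose-response curve (bottom asymptote free, so it can be relative for partial curves) and is censored at the highest tested concentration. Rows with DSS 0 (no meaningful response) were excluded.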

MDA-MB-231 [11] = details: 72 h; remark: listed apart in the source
Experimental: as §4

MDA-MB-468 [12] = details: 72 h; remark: listed apart in the source
How it was run: as §1

HCC1599 [13] = details: 72 h
How it was run: as §1

Hs578T [14] = details: 72 h
How it was run: as §1

BT-474 [15] = details: 72 h
How it was run: as §2

SK-BR-3 [16] = details: 72 h
How it was run: as §2

CAL-51 [17] = details: 72 h
How it was run: as §2

HCC1143 [18] = details: 72 h; remark: listed apart in the source
How it was run: as §2

CAL-148 [19] = details: 72 h
How it was run: as §2

HDQ-P1 [20] = details: 72 h
How it was run: as §2

MDA-MB-436 [21] = details: 72 h
How it was run: as §2

DU-4475 [22] = details: 72 h; remark: listed apart in the source
How it was run: as §2

Hs578T [23] = details: 72 h; remark: listed apart in the source
How it was run: as §2

MDA-MB-453 [24] = details: 72 h
How it was run: as §1

CAL-85-1 [25] = details: 72 h
How it was run: as §1

CAL-51 [26] = details: 72 h; remark: listed apart in the source
Experimental: as §4

CAL-148 [27] = details: 72 h; remark: listed apart in the source
Experimental: as §4

MFM-223 [28] = details: 72 h
How it was run: as §1

BT-474 [29] = details: 72 h; remark: listed apart in the source
How it was run: as §1

MFM-223 [30] = details: 72 h; remark: listed apart in the source
How it was run: as §2

HCC1937 = details: 72 h
How it was run: as §2

HCC1599 [31] = details: 72 h; remark: listed apart in the source
How it was run: as §2

MDA-MB-453 [32] = details: 72 h; remark: listed apart in the source
How it was run: as §2

CAL-85-1 [33] = details: 72 h; remark: listed apart in the source
How it was run: as §2

MDA-MB-231 [34] = details: 72 h; remark: listed apart in the source
How it was run: as §2

MCF-10A [35] = details: 72 h
How it was run: as §2

HDQ-P1 [36] = details: 72 h; remark: listed apart in the source
How it was run: as §1

MFM-223 [37] = details: 72 h; remark: listed apart in the source
Experimental: as §4

BT-474 [38] = details: 72 h; remark: listed apart in the source
Experimental: as §4

HCC1143 [39] = details: 72 h; remark: listed apart in the source
Experimental: as §4

CAL-85-1 [40] = details: 72 h; remark: listed apart in the source
Experimental: as §4

Hs578T [41] = details: 72 h; remark: listed apart in the source
Experimental: as §4

BT-549 [42] = details: 72 h; remark: listed apart in the source
Experimental: as §4

MCF-10A [43] = details: 72 h; remark: listed apart in the source
Experimental: as §4

EC50, CellTiter-Blue viability (HCC1143 [1]): > 1000 nM
EC50, CellTiter-Blue viability (MDA-MB-231 [2]): 9.12 nM
EC50, CellTiter-Glo (BT-549 [3]): 125 nM
Structure (SMILES): Nc1nc(Cl)nc2c1ncn2[C@H]1C[C@H](O)[C@@H](CO)O1 [Cladribine]
EC50, CellTiter-Blue viability (DU-4475 [4]): 879 nM
normalised viability (MFM-223 [5]; 10 nM): 85%
normalised viability (SK-BR-3 [6]; 10 nM): 95%
normalised viability (MDA-MB-436 [7]; 10 nM): 96.9%
normalised viability (Hs578T [8]; 10 nM): 98.4%
normalised viability (BT-549 [9]; 10 nM): 92%
EC50, CellTox Green (MDA-MB-468 [10]): 2.5 nM
EC50, CellTox Green (MDA-MB-231 [11]): > 1000 nM

EC50, CellTiter-Blue viability (MDA-MB-468 [12]): 483 nM
EC50, CellTiter-Blue viability (HCC1143 [1]): 213 nM
EC50, CellTiter-Blue viability (HCC1599 [13]): 556 nM
EC50, CellTiter-Blue viability (MDA-MB-231 [2]): 183 nM
EC50, CellTiter-Glo (BT-474 [15]): > 10000 nM
EC50, CellTiter-Glo (SK-BR-3 [16]): 156 nM
EC50, CellTiter-Glo (HCC1143 [18]): 1270 nM
EC50, CellTiter-Glo (MDA-MB-436 [21]): 364 nM
EC50, CellTiter-Glo (BT-549 [3]): 305 nM
EC50, CellTiter-Blue viability (MDA-MB-453 [24]): 396 nM
Structure (SMILES): Nc1ccn([C@@H]2O[C@H](CO)[C@@H](O)[C@@H]2O)c(=O)n1 [Cytarabine]
EC50, CellTiter-Blue viability (Hs578T [14]): 17.3 nM
EC50, CellTiter-Glo (CAL-51 [17]): 544 nM
EC50, CellTiter-Glo (CAL-148 [19]): 200 nM
EC50, CellTiter-Glo (HDQ-P1 [20]): 2890 nM
EC50, CellTiter-Glo (DU-4475 [22]): 339 nM
EC50, CellTiter-Glo (Hs578T [23]): 462 nM
EC50, CellTiter-Blue viability (DU-4475 [4]): 450 nM
EC50, CellTiter-Blue viability (CAL-85-1 [25]): 1190 nM
normalised viability (MFM-223 [5]; 100 nM): 103%
normalised viability (SK-BR-3 [6]; 100 nM): 81.2%
normalised viability (MDA-MB-436 [7]; 100 nM): 91.9%
normalised viability (Hs578T [8]; 100 nM): 65.1%
normalised viability (BT-549 [9]; 100 nM): 67.9%
EC50, CellTox Green (CAL-51 [26]): 315 nM
EC50, CellTox Green (CAL-148 [27]): 61.6 nM

EC50, CellTiter-Blue viability (BT-474 [29]): 16.1 nM
EC50, CellTiter-Blue viability (MDA-MB-468 [12]): 1.54 nM
EC50, CellTiter-Blue viability (HCC1143 [1]): 1.52 nM
EC50, CellTiter-Blue viability (HCC1599 [13]): 8.18 nM
EC50, CellTiter-Blue viability (MDA-MB-231 [2]): 1.35 nM
EC50, CellTiter-Glo (HCC1937): 4.61 nM
EC50, CellTiter-Glo (BT-474 [15]): 12 nM
EC50, CellTiter-Glo (SK-BR-3 [16]): 14.1 nM
EC50, CellTiter-Glo (HCC1143 [18]): 8.69 nM
EC50, CellTiter-Glo (HCC1599 [31]): 35.9 nM
EC50, CellTiter-Glo (MDA-MB-436 [21]): 7.89 nM
EC50, CellTiter-Glo (MDA-MB-453 [32]): 18.4 nM
EC50, CellTiter-Glo (MDA-MB-231 [34]): 12.7 nM
EC50, CellTiter-Glo (BT-549 [3]): 1.94 nM
EC50, CellTiter-Blue viability (MDA-MB-453 [24]): 1.9 nM
Structure (SMILES): Cc1c2oc3c(C)ccc(C(=O)N[C@@H]4C(=O)N[C@H](C(C)C)C(=O)N5CCC[C@H]5C(=O)N(C)CC(=O)N(C)[C@@H](C(C)C)C(=O)O[C@@H]4C)c3nc-2c(C(=O)N[C@@H]2C(=O)N[C@H](C(C)C)C(=O)N3CCC[C@H]3C(=O)N(C)CC(=O)N(C)[C@@H](C(C)C)C(=O)O[C@@H]2C)c(N)c1=O [Dactinomycin]
EC50, CellTiter-Blue viability (MFM-223 [28]): 14.8 nM
EC50, CellTiter-Blue viability (Hs578T [14]): 0.99 nM
EC50, CellTiter-Glo (MFM-223 [30]): 35.9 nM
EC50, CellTiter-Glo (CAL-51 [17]): 5.11 nM
EC50, CellTiter-Glo (CAL-148 [19]): 1.56 nM
EC50, CellTiter-Glo (HDQ-P1 [20]): 2.14 nM
EC50, CellTiter-Glo (DU-4475 [22]): 2.98 nM
EC50, CellTiter-Glo (CAL-85-1 [33]): 9.71 nM
EC50, CellTiter-Glo (Hs578T [23]): 11.1 nM
EC50, CellTiter-Glo (MCF-10A [35]): 8.54 nM
EC50, CellTiter-Blue viability (HDQ-P1 [36]): 1.67 nM
EC50, CellTiter-Blue viability (DU-4475 [4]): 0.72 nM
EC50, CellTiter-Blue viability (CAL-85-1 [25]): 2.03 nM
normalised viability (MFM-223 [5]; 10 nM): 67.5%
normalised viability (SK-BR-3 [6]; 10 nM): 24.6%
normalised viability (MDA-MB-436 [7]; 10 nM): 46.4%
normalised viability (Hs578T [8]; 10 nM): 23.3%
normalised viability (BT-549 [9]; 10 nM): 17.8%
EC50, CellTox Green (MFM-223 [37]): 93.9 nM
EC50, CellTox Green (BT-474 [38]): 354 nM
EC50, CellTox Green (MDA-MB-468 [10]): 43.6 nM
EC50, CellTox Green (CAL-51 [26]): 2.1 nM
EC50, CellTox Green (HCC1143 [39]): 167 nM
EC50, CellTox Green (CAL-148 [27]): 1.44 nM
EC50, CellTox Green (CAL-85-1 [40]): 22.2 nM
EC50, CellTox Green (MDA-MB-231 [11]): 2.54 nM
EC50, CellTox Green (Hs578T [41]): 30.5 nM
EC50, CellTox Green (BT-549 [42]): 5.04 nM
EC50, CellTox Green (MCF-10A [43]): 27 nM
